# Measurements published in the supplement of paper PMC10307832.
# Legend:
# Test in all cases: relative viability (nuclei count vs DMSO), 5 days (fraction); higher = more cells survive
# SK-LU-1 = system: SK-LU-1
# Procedure, shortened: (§1)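 Each reported value is a median over duplicate plates. It expresses relative viability: treated-well nuclei count divided by vehicle-well nuclei count. Lung cancer cell lines in 1536-well plates were dosed by pin tool a day after seeding, alone with one drug or with a fixed anchor-drug dose plus five library-drug doses (not always all listed) in √10 steps, and nuclei were counted after 5 days.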
# NCI-H2170 = system: NCI-H2170
# Procedure, shortened: as §1
# NCI-H1993 = system: NCI-H1993
# Procedure, shortened: as §1
# HCC-827 = system: HCC-827
# Procedure, shortened: as §1
# H3255 = system: H3255
# Procedure, shortened: as §1
# ChaGo-K-1 = system: ChaGo-K-1
# Procedure, shortened: as §1
# NCI-H1355 = system: NCI-H1355
# Procedure, shortened: as §1
# LU99A = system: LU99A
# Procedure, shortened: as §1
# LK-2 = system: LK-2
# Procedure, shortened: as §1
# NCI-H1650 = system: NCI-H1650
# Procedure, shortened: as §1
# NCI-H441 = system: NCI-H441
# Procedure, shortened: as §1
# SW 1573 = system: SW 1573
# Procedure, shortened: as §1
# PC-3 [JPC-3] = system: PC-3 [JPC-3]
# Procedure, shortened: as §1
# EKVX = system: EKVX
# Procedure, shortened: as §1
# LCLC-97TM1 = system: LCLC-97TM1
# Procedure, shortened: as §1
# HOP-62 = system: HOP-62
# Procedure, shortened: as §1
# NCI-H2405 = system: NCI-H2405
# Procedure, shortened: as §1
# EPLC-272H = system: EPLC-272H
# Procedure, shortened: as §1
# NCI-H2228 = system: NCI-H2228
# Procedure, shortened: as §1
# NCI-H3122 = system: NCI-H3122
# Procedure, shortened: as §1
# UMC-11 = system: UMC-11
# Procedure, shortened: as §1
# NCI-H522 = system: NCI-H522
# Procedure, shortened: as §1
# LXF-289 = system: LXF-289
# Procedure, shortened: as §1
compound,measurement,setting,value
CN1CCN(CCOc2cc(OC3CCOCC3)c3c(Nc4c(Cl)ccc5c4OCO5)ncnc3c2)CC1 [Saracatinib] + O=C(c1cc(Cc2n[nH]c(=O)c3ccccc23)ccc1F)N1CCN(C(=O)C2CC2)CC1 [Olaparib] (partner 8 µM),relative viability,SK-LU-1; first compound 0.02 µM,0.416
same,relative viability,SK-LU-1; first compound 0.2 µM,0.359
same,relative viability,SK-LU-1; first compound 0.6325 µM,0.33
same,relative viability,SK-LU-1; first compound 2 µM,0.28
same,relative viability,NCI-H2170; first compound 0.02 µM,0.597
same,relative viability,NCI-H2170; first compound 0.2 µM,0.539
same,relative viability,NCI-H2170; first compound 0.6325 µM,0.558
same,relative viability,NCI-H2170; first compound 2 µM,0.524
same,relative viability,NCI-H1993; first compound 0.02 µM,1.03
same,relative viability,NCI-H1993; first compound 0.2 µM,1.02
same,relative viability,NCI-H1993; first compound 0.6325 µM,1.01
same,relative viability,NCI-H1993; first compound 2 µM,0.989
same,relative viability,HCC-827; first compound 0.02 µM,0.66
same,relative viability,HCC-827; first compound 0.2 µM,0.532
same,relative viability,HCC-827; first compound 0.6325 µM,0.192
same,relative viability,HCC-827; first compound 2 µM,0.16
same,relative viability,H3255; first compound 0.02 µM,0.623
same,relative viability,H3255; first compound 0.2 µM,0.496
same,relative viability,H3255; first compound 0.6325 µM,0.593
same,relative viability,H3255; first compound 2 µM,0.301
same,relative viability,ChaGo-K-1; first compound 0.02 µM,0.423
same,relative viability,ChaGo-K-1; first compound 0.2 µM,0.28
same,relative viability,ChaGo-K-1; first compound 0.6325 µM,0.413
same,relative viability,ChaGo-K-1; first compound 2 µM,0.449
same,relative viability,NCI-H1355; first compound 0.02 µM,0.796
same,relative viability,NCI-H1355; first compound 0.2 µM,0.692
same,relative viability,NCI-H1355; first compound 0.6325 µM,0.817
same,relative viability,NCI-H1355; first compound 2 µM,0.706
same,relative viability,LU99A; first compound 0.02 µM,0.278
same,relative viability,LU99A; first compound 0.2 µM,0.194
same,relative viability,LU99A; first compound 0.6325 µM,0.282
same,relative viability,LU99A; first compound 2 µM,0.256
same,relative viability,LK-2; first compound 0.02 µM,0.802
same,relative viability,LK-2; first compound 0.2 µM,0.505
same,relative viability,LK-2; first compound 0.6325 µM,0.437
same,relative viability,LK-2; first compound 2 µM,0.388
same,relative viability,NCI-H1650; first compound 0.02 µM,0.784
same,relative viability,NCI-H1650; first compound 0.2 µM,0.636
same,relative viability,NCI-H1650; first compound 0.6325 µM,0.624
same,relative viability,NCI-H1650; first compound 2 µM,0.569
same,relative viability,NCI-H441; first compound 0.02 µM,0.57
same,relative viability,NCI-H441; first compound 0.2 µM,0.536
same,relative viability,NCI-H441; first compound 0.6325 µM,0.634
same,relative viability,NCI-H441; first compound 2 µM,0.532
same,relative viability,SW 1573; first compound 0.02 µM,0.502
same,relative viability,SW 1573; first compound 0.2 µM,0.382
same,relative viability,SW 1573; first compound 0.6325 µM,0.448
same,relative viability,SW 1573; first compound 2 µM,0.384
same,relative viability,PC-3 [JPC-3]; first compound 0.02 µM,1.19
same,relative viability,PC-3 [JPC-3]; first compound 0.2 µM,0.993
same,relative viability,PC-3 [JPC-3]; first compound 0.6325 µM,0.746
same,relative viability,PC-3 [JPC-3]; first compound 2 µM,0.55
same,relative viability,EKVX; first compound 0.02 µM,0.704
same,relative viability,EKVX; first compound 0.6325 µM,0.91
same,relative viability,EKVX; first compound 2 µM,0.38
same,relative viability,LCLC-97TM1; first compound 0.02 µM,0.494
same,relative viability,LCLC-97TM1; first compound 0.2 µM,0.291
same,relative viability,LCLC-97TM1; first compound 0.6325 µM,0.567
same,relative viability,LCLC-97TM1; first compound 2 µM,0.32
same,relative viability,HOP-62; first compound 0.02 µM,0.38
same,relative viability,HOP-62; first compound 0.2 µM,0.417
same,relative viability,HOP-62; first compound 0.6325 µM,0.204
same,relative viability,HOP-62; first compound 2 µM,0.39
same,relative viability,NCI-H2405; first compound 0.02 µM,0.873
same,relative viability,NCI-H2405; first compound 0.2 µM,0.84
same,relative viability,NCI-H2405; first compound 0.6325 µM,0.673
same,relative viability,NCI-H2405; first compound 2 µM,0.595
same,relative viability,EPLC-272H; first compound 0.02 µM,0.946
same,relative viability,EPLC-272H; first compound 0.2 µM,0.714
same,relative viability,EPLC-272H; first compound 0.6325 µM,0.658
same,relative viability,EPLC-272H; first compound 2 µM,0.426
same,relative viability,NCI-H2228; first compound 0.02 µM,0.966
same,relative viability,NCI-H2228; first compound 0.2 µM,0.617
same,relative viability,NCI-H2228; first compound 0.6325 µM,0.475
same,relative viability,NCI-H2228; first compound 2 µM,0.568
same,relative viability,NCI-H3122; first compound 0.02 µM,0.62
same,relative viability,NCI-H3122; first compound 0.2 µM,0.485
same,relative viability,NCI-H3122; first compound 0.6325 µM,0.682
same,relative viability,NCI-H3122; first compound 2 µM,0.528
same,relative viability,UMC-11; first compound 0.02 µM,0.42
same,relative viability,UMC-11; first compound 0.2 µM,0.306
same,relative viability,UMC-11; first compound 0.6325 µM,0.362
same,relative viability,UMC-11; first compound 2 µM,0.351
same,relative viability,NCI-H522; first compound 0.02 µM,0.679
same,relative viability,NCI-H522; first compound 0.2 µM,0.59
same,relative viability,NCI-H522; first compound 0.6325 µM,0.572
same,relative viability,NCI-H522; first compound 2 µM,0.534
same,relative viability,LXF-289; first compound 0.02 µM,1.07
same,relative viability,LXF-289; first compound 0.2 µM,0.916
same,relative viability,LXF-289; first compound 0.6325 µM,1.09
same,relative viability,LXF-289; first compound 2 µM,1.04
